For one series, the system named is LNCaP. Nature of the series: Antiproliferative activity against human LNCAP cells. The format is functional, cell-based.
For series [1], the species on record is Homo sapiens. As to the kind of experiment: Selectivity ratio of IC50 for inhibition of His6-tagged human CREBBP (R1081 to G1197 residues) expressed in Escherichia coli BL21(DE3) by AlphaScreen assay to IC50 for inhibition of His6-tagged human BRD4 bromodomain-1 (N44 to E168 residues) expressed in Escherichia coli BL21(DE3) by AlphaScreen assay.
A further series relates to LNCaP C4-2B. Nature of the series: Inhibition of colony formation in human C4-2B cells after 14 days by crystal violet staining based assay. The format is functional, cell-based.
For series [2], the species on record is Homo sapiens. Nature of the series: Inhibition of BET bromodomain in human LNCAP cells assessed as reduction in c-Myc mRNA level at 1 uM after 48 hrs by qPCR assay. The format is cell-based. On the technique in general: Real-time PCR tracks product formation cycle by cycle.
The test system of series [3] is VCaP. As to the kind of experiment: Inhibition of BET bromodomain in human VCaP cells assessed as reduction in c-Myc mRNA level at 1 uM after 48 hrs by qPCR assay. The series is classed as cell-based.
Series [4] is filed under the species Homo sapiens. As to the kind of experiment: Inhibition of BET bromodomain in human LNCAP cells assessed as reduction in PSA mRNA level at 1 uM after 48 hrs by qPCR assay. The series is classed as cell-based.
Series [5] relates to VCaP. Nature of the series: Inhibition of BET bromodomain in human VCaP cells assessed as reduction in full length AR mRNA level at 1 uM after 48 hrs by qPCR assay. The format is cell-based.
Series [6] deals with VCaP. Nature of the series: Inhibition of BET bromodomain in human VCaP cells assessed as reduction in TMPRSS2 mRNA level at 1 uM after 48 hrs by qPCR assay. The series is classed as cell-based.
Series [7] deals with VCaP. Nature of the series: Inhibition of BET bromodomain in human VCaP cells assessed as reduction in ERG mRNA level at 1 uM after 48 hrs by qPCR assay. The format is cell-based.
Series [8] is filed under the species Homo sapiens. Nature of the series: Inhibition of BET bromodomain in human 22Rv1 cells assessed as reduction in ERG mRNA level at 1 uM after 48 hrs by qPCR assay. The format is cell-based.
The species entered for series [9] is Homo sapiens. As to the kind of experiment: Inhibition of BET bromodomain in human LNCAP cells assessed as reduction in ERG mRNA level at 1 uM after 48 hrs by qPCR assay. The format is cell-based.
The species entered for series [10] is Homo sapiens. Nature of the series: Inhibition of BET bromodomain in human 22Rv1 cells assessed as full length AR protein level at 1 uM after 48 hrs by Western blot assay (reference value: 1). The format is cell-based. (In general: A western blot detects proteins with antibodies after separation by electrophoresis.)
Series [11] is filed under the species Homo sapiens. Nature of the series: Inhibition of BET bromodomain in human 22Rv1 cells assessed as full length AR protein level at 4 uM after 48 hrs by Western blot assay (reference value: 1). The series is classed as cell-based.
The species entered for series [12] is Homo sapiens. Nature of the series: Inhibition of BET bromodomain in human 22Rv1 cells assessed as full length AR protein level at 16 uM after 48 hrs by Western blot assay (reference value: 1). The series is classed as cell-based.
For series [13], the species on record is Homo sapiens. Nature of the series: Inhibition of BET bromodomain in human 22Rv1 cells assessed as AR-varient protein level at 1 uM after 48 hrs by Western blot assay (reference value: 1). The series is classed as cell-based.
For series [14], the species on record is Homo sapiens. Nature of the series: Inhibition of BET bromodomain in human 22Rv1 cells assessed as AR-varient protein level at 4 uM after 48 hrs by Western blot assay (reference value: 1). The format is cell-based.
Series [15] deals with CWR22R. As to the kind of experiment: Antimigratory activity against human 22Rv1 cells assessed as inhibition of wound closure at 1 uM after 48 hrs by bright field microscopic method. The format is functional, cell-based.
Series [16] is described as follows: Cmax in Sprague-Dawley rat at 2 mg/kg, iv administered as single dose. The series is classed as ADME, organism-based. Also noted: dose 2 mg/kg, route intravenous. Particulars: in vivo.
A short description of series [17]: Tmax in Sprague-Dawley rat at 2 mg/kg, iv administered as single dose. The format is ADME, organism-based. The settings on record: in vivo.
A short description of series [18]: Tmax in Sprague-Dawley rat at 10 mg/kg, po administered as single dose. The settings on record: in vivo. The series is classed as ADME, organism-based.
The nature of series [19]: Half life in Sprague-Dawley rat at 2 mg/kg, iv administered as single dose. The format is ADME, organism-based. The settings on record: in vivo.
Series [20] can be described thus: Oral bioavailability in Sprague-Dawley rat at 10 mg/kg administered as single dose. The series is classed as ADME, organism-based. The settings on record: in vivo.
Series [21] deals with CWR22R. Nature of the series: Antitumor activity against human 22Rv1 cells xenografted in C.B-17/IcrHsd-Prkdc scid mouse assessed as tumor growth inhibition at 50 mg/kg, ip administered 5 times per week relative to control. The series is classed as functional. The settings on record: 22Rv1, ip, read-out: TGI.
Another series has as its system Mus musculus. Nature of the series: Toxicity in C.B-17/IcrHsd-Prkdc scid mouse xenografted with human 22Rv1 cells assessed as body weight loss at 50 mg/kg, ip administered 5 times per week measured during compound dosing. The format is organism-based. The settings on record: in vivo. For orientation: Xenograft models place foreign cells or tissue in a host animal.

The values below come from ChEMBL document CHEMBL4152259, “Benzoxazinone-containing 3,5-dimethylisoxazole derivatives as BET bromodomain inhibitors for treatment of castration-resistant prostate cancer” (Eur J Med Chem, 2018).

As usually defined, the IC50 is the point on the concentration scale where inhibition reaches its midpoint. The term Cmax denotes the maximum level reached in the sampled fluid or tissue. As a reminder, the Tmax is the time from dosing to the highest level. A word on the half-life: it is how long it takes for the measured level to halve. A low value points to rapid decline. Usually bioavailability stands for the share of a dose that reaches the circulation, judged against a reference dose that is usually intravenous. A high value points to good availability.

Activity calls are given as the source filed them. No cut-off for these calls is given here.

For the molecule `Cc1sc2c(c1C)C(c1ccc(Cl)cc1)=N[C@@H](CC(=O)OC(C)(C)C)c1nnc(C)n1-2`, the IC50 in the series with LNCaP was 110 nM.
`Cc1noc(C)c1-c1ccc2c(c1)O[C@H](CC1CC1)C(=O)N2`: the Ratio IC50 in the series filed under Homo sapiens [1] is 25. In the series on LNCaP C4-2B, the inhibition result was “Dose-dependent effect”. In addition, the inhibition entry in the series listed under Homo sapiens [2], in the series with VCaP [3], in the series listed under Homo sapiens [4], in the series on VCaP [5], in the series with VCaP [6] and in the series with VCaP [7] was “Active” each time. Also, the inhibition result in the series listed under Homo sapiens [8], in the series listed under Homo sapiens [9] and with CWR22R [15] was “Active” each time. Further, the fold change (FC) in the series listed under Homo sapiens [10] came to 0.43; in the series listed under Homo sapiens [11] it was 0.4; in the series filed under Homo sapiens [12] it was 0.09; in the series listed under Homo sapiens [13], 0.83; in the series listed under Homo sapiens [14], 0.45. The molecule also came in with a Cmax in series [16] of 1350 ng/mL. Moreover, the results for the time of peak concentration (Tmax) in [17] and in [18] were 4.8 min and 30 min, respectively. In series [19], the half-life is 48 min. Besides, in series [20], the bioavailability is 29.3%. The inhibition in vivo at 50 mg/kg with CWR22R [21] was found to be 70%. In addition, the Activity result in the series on Mus musculus was “Non-Toxic”.
